The record followed here is patent publication US8329904B2, “Azacyclic derivatives” (Hoffmann-La Roche Inc., priority 2009, dated 2012).

The target of this assay is T1, human HSL (Homo sapiens, UniProt Q05469).
T1 construct: overlapping PCR to generate a full length human HSL ORF with a 3′-His6 tag; His6 (C); made in house; host or cells: High 5 insect cells (baculovirus, pFast-BAC)
T1 sequence (Q05469 1-1076): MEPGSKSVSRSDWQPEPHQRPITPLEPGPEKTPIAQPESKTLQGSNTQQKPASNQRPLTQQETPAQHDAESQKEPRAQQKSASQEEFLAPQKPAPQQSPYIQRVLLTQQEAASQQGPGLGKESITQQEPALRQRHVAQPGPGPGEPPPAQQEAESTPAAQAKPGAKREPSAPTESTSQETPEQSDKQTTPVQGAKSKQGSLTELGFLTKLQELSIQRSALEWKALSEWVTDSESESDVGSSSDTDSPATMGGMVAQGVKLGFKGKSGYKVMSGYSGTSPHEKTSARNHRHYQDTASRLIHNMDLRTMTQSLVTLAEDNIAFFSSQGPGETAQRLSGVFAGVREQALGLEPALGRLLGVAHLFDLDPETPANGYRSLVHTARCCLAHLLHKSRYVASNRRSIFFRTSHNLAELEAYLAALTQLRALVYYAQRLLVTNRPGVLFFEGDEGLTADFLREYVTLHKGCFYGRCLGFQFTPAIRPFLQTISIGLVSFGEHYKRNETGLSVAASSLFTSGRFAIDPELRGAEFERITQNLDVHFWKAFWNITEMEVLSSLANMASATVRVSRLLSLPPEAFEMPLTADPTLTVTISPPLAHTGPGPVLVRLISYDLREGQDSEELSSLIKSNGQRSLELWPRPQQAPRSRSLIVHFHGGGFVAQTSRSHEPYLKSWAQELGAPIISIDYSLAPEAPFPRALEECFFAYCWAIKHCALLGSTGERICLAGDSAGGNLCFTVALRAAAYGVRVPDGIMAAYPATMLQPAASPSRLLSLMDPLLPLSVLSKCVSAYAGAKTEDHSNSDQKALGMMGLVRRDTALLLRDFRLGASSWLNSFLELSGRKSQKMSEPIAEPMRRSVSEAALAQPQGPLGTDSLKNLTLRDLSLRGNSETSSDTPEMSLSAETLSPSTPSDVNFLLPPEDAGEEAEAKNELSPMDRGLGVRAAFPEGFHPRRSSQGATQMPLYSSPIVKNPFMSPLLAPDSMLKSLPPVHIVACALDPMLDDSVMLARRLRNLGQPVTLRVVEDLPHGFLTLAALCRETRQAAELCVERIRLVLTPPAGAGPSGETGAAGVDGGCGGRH
Briefly: Human Hormone-Sensitive Lipase (HSL) Enzyme Inhibition Assay. The format is biochemical. The settings on record: colorimetric assay, 2,3-dimercapto-1-propanol tributyrate (DMPT) substrate, 37° C. for 20 minutes, absorbance at 405 nm; read-out: HSL hum IC50. The procedure, abridged: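 Colorimetric thioester hydrolysis: compounds in DMSO series mixed with DMPT (1.5 mM) in MOPS pH 7.2 with BSA, then baculovirus-expressed His6-tagged full-length human HSL added, 37° C, 20 min. DTNB plus detergents added, 15 min room temperature, absorbance at 405 nm.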

As usually defined, the IC50 is the concentration that gives 50% inhibition. For the compound `CCC(C)(O)CC(=O)N1CCC2(CC1)CCN(c1ccc(OC(F)(F)F)cc1)C2=O` (centres unmarked) [Example 215, 8-(3-Hydroxy-3-methyl-pentanoyl)-2-(4-trifluoromethoxy-phenyl)-2,8-diaza-spiro[4.5]decan-1-one], the IC50 was determined as 470 nM.

Regarding `O=C(CC1CCC1)N1CCC2(CC1)CCN(c1ccc(OC(F)(F)F)cc1)C2=O` [Example 216, 8-(2-Cyclobutyl-acetyl)-2-(4-trifluoromethoxy-phenyl)-2,8-diaza-spiro[4.5]decan-1-one], the half-inhibitory concentration (IC50) came to 250 nM.

On to `CC(C)OCC(=O)N1CCC2(CC1)CCN(c1ccc(OC(F)(F)F)cc1)C2=O` [Example 217, 8-(2-Isopropoxy-acetyl)-2-(4-trifluoromethoxy-phenyl)-2,8-diaza-spiro[4.5]decan-1-one], for which the IC50 came to 220 nM.

`CC(C)(C)OCC(=O)N1CCC2(CC1)CCN(c1ccc(OC(F)(F)F)cc1)C2=O` [Example 218, 8-(2-tert-Butoxy-acetyl)-2-(4-trifluoromethoxy-phenyl)-2,8-diaza-spiro[4.5]decan-1-one]: the IC50 stood at 100 nM.

Turning to `O=C(N1CCC2(CC1)CCN(c1ccc(OC(F)(F)F)cc1)C2=O)C1(O)CC1` [Example 219, 8-(1-Hydroxy-cyclopropanecarbonyl)-2-(4-trifluoromethoxy-phenyl)-2,8-diaza-spiro[4.5]decan-1-one], the IC50 was found to be 280 nM.

As to `O=C(COCc1ccccc1)N1CCC2(CC1)CCN(c1ccc(OC(F)(F)F)cc1)C2=O` [Example 220, 8-(2-Benzyloxy-acetyl)-2-(4-trifluoromethoxy-phenyl)-2,8-diaza-spiro[4.5]decan-1-one], the IC50 was 80 nM.

In the case of `O=C(COc1ccccc1)N1CCC2(CC1)CCN(c1ccc(OC(F)(F)F)cc1)C2=O` [Example 221, 8-(2-Phenoxy-acetyl)-2-(4-trifluoromethoxy-phenyl)-2,8-diaza-spiro[4.5]decan-1-one], the IC50 stood at 60 nM.

For the compound `CC(C(=O)N1CCC2(CC1)CCN(c1ccc(OC(F)(F)F)cc1)C2=O)c1ccccc1` (centres unmarked) [Example 222, 8-(2-Phenyl-propionyl)-2-(4-trifluoromethoxy-phenyl)-2,8-diaza-spiro[4.5]decan-1-one], the IC50 was 100 nM.

For the compound `CCC(C(=O)N1CCC2(CC1)CCN(c1ccc(OC(F)(F)F)cc1)C2=O)c1ccccc1` (centres unmarked) [Example 223, 8-(2-Phenyl-butyryl)-2-(4-trifluoromethoxy-phenyl)-2,8-diaza-spiro[4.5]decan-1-one], the concentration for half-maximal inhibition (IC50) came to 110 nM.

Consider `Cc1nc(C(=O)N2CCC3(CC2)CCN(c2ccc(OC(F)(F)F)cc2)C3=O)cs1` [Example 224, 8-(2-Methyl-thiazole-4-carbonyl)-2-(4-trifluoromethoxy-phenyl)-2,8-diaza-spiro[4.5]decan-1-one], for which the half-inhibitory concentration (IC50) came to 820 nM.

Take `O=C(CCl)N1CCC2(CC1)CCN(c1ccc(OC(F)(F)F)cc1)C2=O` [Example 225, 8-(2-Chloro-acetyl)-2-(4-trifluoromethoxy-phenyl)-2,8-diaza-spiro[4.5]decan-1-one]: the IC50 was 320 nM.

On to `O=C(COC1CCCC1)N1CCC2(CC1)CCN(c1ccc(OC(F)(F)F)cc1)C2=O` [Example 226, 8-(2-Cyclopentyloxy-acetyl)-2-(4-trifluoromethoxy-phenyl)-2,8-diaza-spiro[4.5]decan-1-one], for which the IC50 amounted to 50 nM.

In the case of `O=C1N(c2ccc(C(F)(F)F)c(Cl)c2)CCC12CCN(S(=O)(=O)c1ccccc1Cl)CC2` [Example 227, 8-(2-Chloro-benzenesulfonyl)-2-(3-chloro-4-trifluoromethyl-phenyl)-2,8-diaza-spiro[4.5]decan-1-one], the IC50 turned out to be 80 nM.

`O=C1N(c2ccc3c(c2)OC(F)(F)O3)CCC12CCN(S(=O)(=O)c1ccccc1Cl)CC2` [Example 228, 8-(2-Chloro-benzenesulfonyl)-2-(2,2-difluoro-benzo[1,3]-dioxol-5-yl)-2,8-diaza-spiro[4.5]decan-1-one]: the IC50 came out at 60 nM.
